Procedure: The amount of solvent and CMF used are detailed in Table 1.
Once the vials were filled and sealed, each vial was held at the temperatures listed in Table 1 above for 20-30 minutes, at which time a sample was taken and analyzed by HPLC.
An aliquot was analyzed by HPLC. The following HPLC protocol was used. The column was an Agilent Technologies RX-Sil silica column; 4.6×100 mm packed with 1.8 micron silica beads. Column temperature was maintained at 50° C. Injection volume was 1.0 microliter. Mobile phase composition was 80% hexane and 20% tetrahydrofuran flowing at 1.0 mL/min.
For `CCCCCCCCCCCCCC` [Tetradecane], the “solubility for CMF” value was “relatively low solubility”. For `CCCCC` [Pentane], the “solubility for CMF” value was “relatively low solubility”. In the case of `CCCCCCCCCCCCCCCCCCCC` [Eicosane], the “solubility for CMF” value is reported as “relatively low solubility”. In the case of `CCCCCCCCCC` [Decane], the “solubility for CMF” value is reported as “relatively low solubility”. For `Clc1ccccc1` [Chlorobenzene], the “solubility for CMF” value was “relatively soluble”. For `CCCCCC` [Hexane], the “solubility for CMF” value was “relatively low solubility”.
